In US20240110004A1 (Northwestern University, priority 2022, published 2024):
Where no end group is shown, it is not given here.

What was measured:
HdhQ111 cells = experiment: Cell viability in HdhQ111 cells after enzyme or serum pretreatment of the compounds; type: cell-based, mouse; settings: relative to compound without pretreatment, 3 μM with respect to peptide
Procedure: FIG. 10A-10B: Cell viability in HdhQ111 mouse striatal cells after enzyme pretreatment.
Each degradation experiment was repeated three times.
To verify that the PLPs retain bioactivity after being exposed to enzymes or serum treatments, the viability of HD mouse mutant striatal HdhQ111 cells was assessed following treatment with HV3-TAT and P1. […] Cells were maintained at 33° C. and 5% CO2 with a relative humidity of 95%. HdQ111 cells were plated in 96-well plates at a density of 5000 per well and then left to attach for 24 h. Cells were treated with HV3-TAT or PLPs at 3 μM with respect to peptide once a day, for 3 days. The medium was replaced every day. After 72 h, cells were washed 3 times with PBS buffer. At this point, 20 μL of CTB reagent in 80 uL of medium was added, and the cells incubated for 3 hours at 37° C. Fluorescence was measured at 590 nm with excitation at 560 nm using a Perkin Elmer EnSpire plate reader. The average background fluorescence of CTB in media without cells was subtracted from the average fluorescence readings of the experimental wells. Viability was calculated as the average background-subtracted signal in a well compared to that of a negative control well (treatment with vehicle or media). Three replicates were performed for each independent sample. 10% DMSO was used as a positive control and untreated cells in complete medium as a negative control. […]

C57BL/6J mice = experiment: Toxicity in WT C57BL/6J mice (CBC, serum chemistry, H&E pathology); type: in vivo, mouse; settings: 3 mg/kg with respect to peptide, osmotic subcutaneous pump, 8 weeks, vs saline
Description: FIG. 21: Optical micrographs for toxicity pathology analysis. H&E stained tissue; scale bar: 200 μm.
FIG. 22: Quantification of in vivo results from toxicity pathology analysis as depicted in FIG. 21. Left: pathology severity scoring of H&E stained tissue; Middle: red blood cell count; Right: white blood cell count.
FIG. 23A-23D: Quantification of in vivo results from toxicity pathology analysis as depicted in FIG. 21. FIG. 23A: represents hemoglobin count; FIG. 23B: total protein count; FIG. 23C: ALT (alanine transaminase) count; FIG. 23D: total bilirubin count.
Methods: To assess the toxicity of P1 at the administrable dose in healthy animals, as compared to HV3-TAT at its operating dose, and saline for the negative control, male C57BL/6J mice were assigned to 3 groups (n=3-4 per group) and administered via osmotic subcutaneous pump (Alzet) either HV3-TAT at 3 mg/kg, P1 at 3 mg/kg, all with respect to peptide concentration, or saline as a negative control for 8 weeks. Animals were checked weekly after drug administration for mortality. At sacrifice, blood was collected from each animal via cardiac puncture using a 25-gauge needle while under isoflurane, and then animals were sacrificed and major organs (brain, lung, heart, liver, spleen, spinal cord, and kidneys) collected, weighed, and stored in 10% buffered formalin followed by paraffin embedment.

Substance	cell viability after enzyme or serum pretreatment of the compound (HdhQ111 cells)	complete blood count (CBC) panel and serum chemical analysis (C57BL/6J mice)	pathology of H&E stained tissues (C57BL/6J mice)
P1: PLP homopolymer having peptide side chains of SEQ ID: 1 (HVLVMSATRR), made by ROMP of norbornene peptide monomer M1 (also: side chains of polynorbornene homopolymer (PLP, ROMP of norbornene peptide monomer))	did not have any significant change in cell viability	no significant difference between groups	No pathological differences
peptide sequence HVLVMCAT (HV3) coupled to the cell penetrating, HIV-derived TAT peptide [HV3-TAT, reference compound]	significant decrease in cell viability	no significant difference between groups	No pathological differences
